# Reference: PubChem BioAssay AID2305 (GlaxoSmithKline (GSK), 2010)
# Tested on: P. falciparum 3D7 growth, pLDH absorbance
# Test: P. falciparum 3D7 growth inhibition, dose response, strain 3D7 (AID 2305)
row,Structure (SMILES),IC50 [nM]
1,CC(=O)c1cccc(NC(=O)c2ccc(Cl)c(S(=O)(=O)N3CCc4ccccc43)c2)c1,1640
2,COc1cc(NC(=O)Nc2cccc3ccccc23)c(OC)cc1Cl,480
3,CS(=O)(=O)Nc1ccc2[nH]cc(C3CCN(CC4CCN(C(=O)/C=C/c5ccc(Cl)c(Cl)c5)CC4)CC3)c2c1,720
4,c1ccc(CN2CCC(NCc3ccccc3-c3ccc(CNC4CCCC4)cc3)CC2)cc1,910
5,Cc1cc(C(=O)CN2C(=O)NC3(CCOc4ccccc43)C2=O)c(C)n1Cc1ccco1 (configuration not stated),610
6,CCc1ccc(CN2CCC(CN(C(=O)c3ccccc3)c3ccc(Cl)cc3)CC2)cc1,990
7,CC(C)NCc1ccc(-c2ccc(NC(=O)c3cccc(C#N)c3)cc2)cc1,650
8,Cc1ccc2nc(C)cc(NN=CC=Cc3ccccc3)c2c1,840
9,NS(=O)(=O)NCCCN1CCN(c2ccccc2)CC1,980
10,CC(C)(C)c1ccc(NC(=O)c2ccc(CN3CCCN(Cc4cccc(F)c4)CC3)cc2)cc1,1120
11,N#Cc1ccc(S(=O)(=O)N2C(c3cccc([N+](=O)[O-])c3)C(C(=O)c3ccccc3)N(C3CCCCC3)C2c2cccc([N+](=O)[O-])c2)cc1 (configuration not stated),1080
12,N#Cc1cccc(C(=O)N2CCOC(CCN3CCC(c4ccccc4)CC3)(c3ccc(Cl)c(Cl)c3)C2)c1 (configuration not stated),1040
13,COc1ccc2nc(N)nc(C)c2c1,930
14,COc1ccc(CNCCCCCCCNCc2ccc(Cl)c(Cl)c2)cc1Cl,1220
15,COc1cc(-c2nc(C(C)(C)CN)[nH]c2-c2ccncc2)ccc1Br,770
16,COc1cccc2c(NN=Cc3cccc([N+](=O)[O-])c3)ccnc12,750
17,c1ccc(COc2ccc(C3CCCCC3)cc2)nc1,770
18,CCCN(CCC)CCCNc1ccc(C(=O)Nc2ccc(OCC)cc2)cc1[N+](=O)[O-],990
19,COc1ccc(CN2CCC(Oc3cccc(NC(=O)c4ccc(C(F)(F)F)cc4)c3)CC2)cc1,740
20,Cc1cc(NN=Cc2cccc([N+](=O)[O-])c2)c2ccc(F)cc2n1,690
21,CCOc1ccc(OCC(=O)Nc2nc(-c3ccc(OC)cc3)c(C)s2)cc1,220
22,O=C(CSc1ccc(Cl)cc1)NC1CCC(CN2CCC(c3c[nH]c4ccccc34)CC2)CC1 (configuration not stated),930
23,O=C1OC(c2ccccc2)(c2ccccc2)CN1CC1CCN(Cc2ccc(O)c(Cl)c2)CC1,820
24,Nc1ncnc2nc(-c3ccc(F)cc3)cc(-c3ccc(NC(=O)c4ccccc4)cc3)c12,640
25,O=S(=O)(c1ccccc1OC(F)(F)F)C1C[C@H]2CC[C@@H](C1)N2S(=O)(=O)c1cccc(C(F)(F)F)c1 (some centres not stated),670
26,Cc1nc(-c2cccc(NCc3ccccc3)c2)[nH]c1C,860

row,Structure (SMILES),IC50 [nM]
1,CC(C)(C)C(=O)Nc1c(-c2cc(=O)oc3cc4c(cc23)CCC4)oc2ccccc12,1260
2,C=CCOc1ccc(CNC2CCN(Cc3ccccc3)CC2)cc1Br,1420
3,NC(=O)c1cccc(C(=O)Nc2cccc(-c3csc(-c4nc5ccccc5[nH]4)c3)c2)c1,130
4,CC(C)(C)c1ccc(OC(=O)c2ccc(NC(=O)N[C@@H](Cc3ccc(O)cc3)C(=O)NC3CCN(Cc4ccc(O)cc4)C3)cc2)cc1 (some centres not stated),810
5,CC(=O)CSC(C=Cc1ccc(N(C)C)cc1)=Nc1ccccc1,1120
6,CS(=O)(=O)NCCCNCc1cccc(-c2ccc(-c3nc4ccccc4[nH]3)s2)c1,1080
7,Cc1ccc(C(=O)Nc2ccc(C)c(OC3CCN(CCC(C)C)C3)c2)cc1 (configuration not stated),790
8,COc1cc(NCC(O)CNc2cc(OC)c3ccccc3n2)nc2ccccc12,110
9,Cn1c(=O)c2nc(-c3ccc(Cl)cc3)nnc2n(CCCC#N)c1=O,150
10,CCN(CC)CCN(Cc1ccc(-c2ccc(C(F)(F)F)cc2)cc1)C(=O)Cn1cc(Cc2cnn(C)c2)c(=O)nc1/C=C/c1ccc(F)cc1,1060
11,CC(C)c1nc2c(N)nc(N)nc2nc1N,1310
12,COc1ccc(CCNCCCCCNCCCc2ccc(Cl)cc2)cc1OC,810
13,Cc1ccc(CN2CCN(CC(O)COc3ccc4c(c3)CCC4)CC2)cc1 (configuration not stated),860
14,COc1cccc(C(=O)N2CCN(Cc3cccc(NC(=O)c4cccs4)c3)CC2)c1,480
15,c1ccc(Oc2ccc(Nc3ccnc4cc(-c5ccc(CNCCN6CCOCC6)o5)ccc34)cc2)nc1,1440
16,COc1ccc(CN2CCCC(N3CC4(OC3=O)c3ccccc3-c3ccccc34)C2)c(O)c1 (configuration not stated),870
17,Cc1cc(NC(=O)c2cc(S(=O)(=O)N3CCCCC3)ccc2C)no1,720
18,CCN(CC)C(=O)C1CCCN(c2cc(C)nc(Nc3ccc(Cl)cc3)n2)C1 (configuration not stated),720
19,Cc1ccc(NS(=O)(=O)c2cccs2)cc1-c1cccc(C(=O)Nc2ccc(F)cc2)c1,650
20,Cc1nc2ccc3nc(NC(=O)c4ccno4)sc3c2s1,660
21,CC1CCCN(c2ccc(NC(=O)c3cccs3)cc2[N+](=O)[O-])C1 (configuration not stated),670
22,O=c1cc(NCCCNCc2ccc(Cl)c(Cl)c2)[nH]c2cc(F)cc(F)c12,680
23,Cc1[nH]c(C)c(-c2ccc(Oc3ccc(Cl)cc3)cc2)c(=O)c1I,960
24,NCc1cccc(-c2ccc3ccnc(N)c3c2)c1,170
25,O=C(c1cc(C(=O)Nc2ccccc2F)c(=O)n(-c2ccccc2F)c1)c1cc(Cl)ccc1O,710
26,CCCCCc1cc(OCCN(C)C)cc2c1C(=O)CC(C)(C)O2,100

row,Structure (SMILES),IC50 [nM]
1,CCN(CCCN1CCCCC1)c1cc(C)nc(Nc2cc(Cl)ccc2C)n1,630
2,COc1ccc2nccc([C@@H](O)CN3CCC(NCc4nc5ccccc5[nH]4)CC3)c2c1,1070
3,Cc1cccc2[nH]c(-c3cccc(-c4cccc(C(=O)N5CCCCC5CN5CCC(O)C5)c4)c3)nc12 (configuration not stated),460
4,O=[N+]([O-])c1cccc(CNCC2CCC(CNCc3cccc([N+](=O)[O-])c3)CC2)c1 (configuration not stated),140
5,CN(C)CCNC(=O)N1CCCN(c2ncnc3cc(-c4ccc(Cl)cc4)sc23)CC1,1020
6,O=C(Nc1ccc(Br)cc1)N(CCN1CCOCC1)CC(O)COc1ccc(Cl)c(F)c1 (configuration not stated),1040
7,OC1CCCN(Cc2ccc(-c3ccc(-c4nc5ccc(F)cc5[nH]4)s3)cc2)C1 (configuration not stated),850
8,CC(C)c1ccc(NC(=O)NC2CCN(CCCCCNC(=O)/C=C/c3ccc(Cl)c(Cl)c3)CC2)cc1,670
9,O=C(Nc1ccccc1Cc1ccccc1)c1ccccc1[N+](=O)[O-],860
10,CC(C)(C)c1ccc(-c2nnc(N)nc2N)cc1,860
11,COc1cccc(C(=O)NCCc2cccc(Cl)c2)c1Oc1ccccc1,840
12,Nc1nc(N)c2c(n1)CCC(c1ccccc1)C2 (configuration not stated),1010
13,Brc1ccc(Nc2nc(NCc3ccccc3)c3ccccc3n2)cc1,340
14,CC(C)CC(C)NC(=O)C1Cc2c([nH]c3ccc(F)cc23)C2(CCN(Cc3ccccc3)CC2)N1 (configuration not stated),970
15,O=S1c2ccccc2Sc2ccccc21,170
16,COc1ccc(N2CCN(CCc3ccc(NC(=O)c4ccc([N+](=O)[O-])cc4)cc3)CC2)c(OC)c1,1170
17,O=C(NCc1cccc(Cl)c1)c1ccc(CNC2CCN(Cc3ccccc3)CC2)cc1,880
18,Cc1cccc2[nH]c(-c3ccc(-c4ccc(CN5CCC(C(N)=O)CC5)cc4)cc3)nc12,930
19,COc1ccc(Nc2ccnc3cc(-c4ccccn4)ccc23)cc1OC,30
20,COc1cc(NC(=O)c2cccs2)c(OC)cc1NC(=O)Nc1cccc(Cl)c1,1000
21,CN(CCO)Cc1ccc(-c2ccc(NS(=O)(=O)c3cccc4cccnc34)cc2)cc1,790
22,CS(=O)(=O)c1cc2c(Nc3ccc(N4CCOCC4)cc3)c(C(N)=O)cnc2cc1Br,250
23,COc1ccc(CNC2Cc3ccccc3C2)cc1-c1ccc(S(=O)(=O)NCCN2CCCC2)s1,190
24,CC(C)(C)c1ccc(N2C(N)=NC(N)=NC2(C)C)cc1,30
25,CN1CCN(CC(=O)Nc2ccc(-c3cccc(-c4nc5ccc(F)cc5[nH]4)c3)cc2)CC1,830
26,N=C(N)c1ccc(C=Cc2ccc(C(=N)N)cc2O)cc1,100

row,Structure (SMILES),IC50 [nM]
1,CC(C)(C)c1ccccc1OC(=O)c1ccccc1,740
2,CC(C)CCNC(=O)C1Cc2c([nH]c3cc(Br)ccc23)C2(CCN(Cc3ccccc3)CC2)N1 (configuration not stated),790
3,Cc1cc(C)c2[nH]cc(C(=O)O)c(=O)c2c1,880
4,CCCCCCn1c2c(c(=N)c3c1CCC3)CCC2,180
5,CC(C)(C)OC(=O)NCc1ccc(Nc2nnc(-c3ccc(OCC(=O)NC[C@@H]4CC[C@H]5C[C@@H]4C5(C)C)c([N+](=O)[O-])c3)o2)cc1,910
6,Oc1ccc(-c2cc(COc3ccccc3C(F)(F)F)c(C3=CCNCC3)cc2COc2ccccc2C(F)(F)F)cc1,780
7,CC[C@H](C)CNC(=O)c1cncc(-c2ccc(CN3CCC(N4CCCC4)CC3)cc2)c1,970
8,CCCN(Cc1nnc(-c2cccs2)o1)C(=O)CSc1nnnn1-c1cc(C)cc(C)c1,500
9,Cc1nc(N)nc(N)c1Oc1cccc(Cl)c1,870
10,CS(=O)(=O)Nc1cccc(-c2cnc3[nH]cc(-c4ccc(C(=O)O)cc4)c3c2)c1,860
11,O=C(NCCN1CCC(c2ccncc2)CC1)c1ccc(Nc2nccc(Nc3ccc(Oc4ccccc4)cc3)n2)cc1,720
12,O=C(Nc1cccc(CN2CCCN(Cc3ccc4c(c3)OCO4)CC2)c1)c1ccc(Cl)c(Cl)c1,890
13,CCOC(=O)NC1=NC(C)(C)N(OCc2cccc3c2ccc2ccccc23)C(NC(=O)OCC)=N1,170
14,O=C(Nc1cccc(-c2ccc(-c3nc4ccc(C(F)(F)F)cc4[nH]3)s2)c1)c1ccncc1,680
15,CC(C)(C)c1nn(-c2ccccc2)c2[nH]c(=O)c(CNCCc3ccccc3)cc12,870
16,NC1CCN(CCc2ccc(NS(=O)(=O)c3cccc4ccccc34)cc2)CC1,1700
17,FC(F)(F)c1ccc2nc(-c3ccc(-c4cccc(CNCCc5ccncc5)c4)s3)[nH]c2c1,120
18,COc1ccc(CN2CCN(CCOC(c3ccc(F)cc3)c3ccc(F)cc3)CC2)c(O)c1,730
19,CC(C)(C)OC(=O)NCc1ccc(Nc2nnc(-c3ccc(OCC(=O)NCc4cc(C(F)(F)F)cc(C(F)(F)F)c4)c([N+](=O)[O-])c3)o2)cc1,460
20,O=C(N[C@@H](Cc1ccccc1)C(=O)NCc1cccc2ccccc12)c1ccc(O)c(-c2ccc(Cl)c(Cl)c2)c1,240
21,Clc1ccc(OCc2ccccc2)c(Cc2ccc(-c3nc4ccncc4[nH]3)o2)c1,750
22,CN(C)CCOc1ccc2[nH]c(-c3cccc(OCc4ccccc4)c3)nc2c1C#N,260
23,Nc1nc2c(c(=O)[nH]1)-c1cccc(Br)c1CC2,700
24,COc1ccc(Cl)cc1NC(=O)Nc1cc(C)nc2ccccc12,290
